Test results taken from patent publication US7635711B2, “Glucocorticoid mimetics, methods of making them, pharmaceutical compositions, and uses thereof” (Boehringer-Ingelheim Pharmaceuticals, Inc., priority 2004, dated 2009).

Experiments:
glucocorticoid receptor = test: one or more of the above assays (GR binding and GR cell assays for agonist/antagonist activity); assay type: cell-based; settings: in one or more of the above assays
From the text: Compounds found to bind to the glucocorticoid receptor may be evaluated for dissociation of transactivation and transrepression by assays cited in the Background of the Invention (C. M. Bamberger and H. M. Schulte, Eur. J. Clin. Invest., 2000, 30 (suppl. 3) 6-9) or by the assays described below.
B. Glucocorticoid Receptor Cell Assays
1. Induction of Aromatase in Fibroblasts (Cell Assay for Transactivation)
Dexamethasone, a synthetic ligand to the glucocorticoid receptor (GR), induces expression of aromatase in human foreskin fibroblast cells. The activity of aromatase is measured by the conversion of testosterone to estradiol in culture media.
Human foreskin fibroblast cells (ATCC Cat. No. CRL-2429, designation CCD112SK) are plated on 96 well plates at 50,000 cells per well 5 days before use, in Iscove's Modified Dulbecco's Media (GibcoBRL Life Technologies Cat No. 12440-053) supplemented with 10% charcoal filtered FBS (Clonetech Cat No. SH30068) and Gentamycin (GibcoBRL Life Technologies Cat. No. 15710-064). On the day of the experiment, the media in the wells is replaced with fresh media. Cells are treated with test compounds to final concentrations of 10^−5 M to 10^−8 M, and testosterone to a final concentration of 300 ng/mL. Each well has a total volume of 100 μL. Samples are made in duplicates. Control wells include: (a) wells that receive testosterone only, and (b) wells that receive testosterone plus 2 μM of dexamethasone to provide maximum induction of aromatase. Plates are incubated at 37° C. overnight (15 to 18 hours), and supernatants are harvested at the end of incubation. Estradiol in the supernatant is measured using ELISA kits for estradiol (made by ALPCO, obtained from American Laboratory Products Cat. No. 020-DR-2693) according to the manufacture's instruction. The amount of estradiol is inversely proportional to the ELISA signals in each well. The extent of aromatase induction by test compounds is expressed as a relative percentage to dexamethasone. EC50 values of test compounds are derived by non-linear curve fitting.
2. Inhibition of IL-6 Production in Fibroblasts (Cell Assay for Transrepression)
Human foreskin fibroblast cells produce IL-6 in response to stimulation by pro-inflammatory cytokine IL-1.
Human foreskin fibroblast cells (ATCC Cat. No. CRL-2429) are plated on 96 well plates at 5,000 cells per well the day before use, in Iscove's Modified Dulbecco's Media (GibcoBRL Life Technologies Cat. No. 12440-053) supplemented with 10% charcoal filtered FBS (Clonetech Cat. No. SH30068) and Gentamycin (GibcoBRL Life Technologies Cat. No. 15710-064). On the next day, media in the wells is replaced with fresh media. Cells are treated with IL-1 (rhIL-1α, R&D Systems Cat. No. 200-LA) to a final concentration of 1 ng/mL, and with test compounds to final concentrations of 10^−5 M to 10^−8 M, in a total volume of 200 μL per well. Samples are done in duplicates. […] Positive control wells receive IL-1 only and represent maximum (or 100%) amount of IL-6 production. Plates are incubated at 37° C. overnight (15 to 18 hours), and supernatants are harvested at the end of incubation. IL-6 levels in the supernatants are determined by the ELISA kits for IL-6 (MedSystems Diagnostics GmbH, Vienna, Austria, Cat. No. BMS213TEN) according to manufacture's instructions. The extent of inhibition of IL-6 by test compounds is expressed in percentage relative to positive controls. IC50 values of test compounds are derived by non-linear curve fitting.
Evaluation of agonist or antagonist activity of compounds binding to the glucocorticoid receptor may be determined by any of the assays.
3. Modulation of Tyrosine Aminotransferase (TAT) Induction in Rat Hepatoma Cells
Testing of compounds for agonist or antagonist activity in induction of tyrosine aminotransferase (TAT) in rat hepatoma cells. […]

Structure (SMILES): O=S(=O)(NC(Cc1c[nH]c2ccccc12)C(F)(F)F)c1ccccc1 (stereo not shown)
- melting point: 121 to 123 °C

Structure (SMILES): Cc1cc(C)c(S(=O)(=O)NC(Cc2c[nH]c3ccccc23)C(F)(F)F)c(C)c1 (stereo not shown) [2,4,6-Trimethyl-N-[2,2,2-trifluoro-1-(1H-indol-3-ylmethyl)ethyl]benzenesulfonamide]
- activity as an agonist of the glucocorticoid receptor function (glucocorticoid receptor): activity as an agonist

Structure (SMILES): Cc1cc(C)c(S(=O)(=O)NC(Cn2cc(C)c3ccccc32)C(F)(F)F)c(C)c1 (stereo not shown) [2,4,6-Trimethyl-N-[2,2,2-trifluoro-1-(3-methylindol-1-ylmethyl)ethyl]benzenesulfonamide]
- activity as an agonist of the glucocorticoid receptor function (glucocorticoid receptor): activity as an agonist

Structure (SMILES): Cc1cc(C)c(S(=O)(=O)NC(Cc2c[nH]c3cccc(F)c23)C(F)(F)F)c(C)c1 (stereo not shown) [2,4,6-Trimethyl-N-[2,2,2-trifluoro-1-(4-fluoro-1H-indol-3-ylmethyl)ethyl]benzenesulfonamide]
- activity as an agonist of the glucocorticoid receptor function (glucocorticoid receptor): activity as an agonist

Structure (SMILES): Cc1cc(C)c(S(=O)(=O)NC(Cc2c[nH]c3ccc(F)cc23)C(F)(F)F)c(C)c1 (stereo not shown) [2,4,6-Trimethyl-N-[2,2,2-trifluoro-1-(5-fluoro-1H-indol-3-ylmethyl)ethyl]benzenesulfonamide]
- activity as an agonist of the glucocorticoid receptor function (glucocorticoid receptor): activity as an agonist

Structure (SMILES): Cc1cc(C)c(S(=O)(=O)NC(Cc2c[nH]c3ccc(C)cc23)C(F)(F)F)c(C)c1 (stereo not shown) [2,4,6-Trimethyl-N-[2,2,2-trifluoro-1-(5-methyl-1H-indol-3-ylmethyl)ethyl]benzenesulfonamide]
- activity as an agonist of the glucocorticoid receptor function (glucocorticoid receptor): activity as an agonist

Structure (SMILES): Cc1cc(C)c(S(=O)(=O)NC(Cc2c[nH]c3cc(F)ccc23)C(F)(F)F)c(C)c1 (stereo not shown) [2,4,6-Trimethyl-N-[2,2,2-trifluoro-1-(6-fluoro-1H-indol-3-ylmethyl)ethyl]benzenesulfonamide]
- activity as an agonist of the glucocorticoid receptor function (glucocorticoid receptor): activity as an agonist

Structure (SMILES): Cc1cc(C)c(S(=O)(=O)NC(Cc2c[nH]c3c(F)cccc23)C(F)(F)F)c(C)c1 (stereo not shown) [2,4,6-Trimethyl-N-[2,2,2-trifluoro-1-(7-fluoro-1H-indol-3-ylmethyl)ethyl]benzenesulfonamide]
- activity as an agonist of the glucocorticoid receptor function (glucocorticoid receptor): activity as an agonist

Structure (SMILES): Nc1cc(Cl)cc(Cl)c1S(=O)(=O)NC(Cc1c[nH]c2ccccc12)C(F)(F)F (stereo not shown) [2-Amino-4,6-dichloro-N-[2,2,2-trifluoro-1-(1H-indol-3-ylmethyl)ethyl]benzenesulfonamide]
- activity as an agonist of the glucocorticoid receptor function (glucocorticoid receptor): activity as an agonist

Structure (SMILES): Cc1ccc2[nH]cc(CC(NS(=O)(=O)c3c(N)cc(Cl)cc3Cl)C(F)(F)F)c2c1 (stereo not shown) [2-Amino-4,6-dichloro-N-[2,2,2-trifluoro-1-(5-methyl-1H-indol-3-ylmethyl)ethyl]benzenesulfonamide]
- activity as an agonist of the glucocorticoid receptor function (glucocorticoid receptor): activity as an agonist

Structure (SMILES): Cc1cc(C)c(S(=O)(=O)NC(Cc2c[nH]c3ccccc23)C(F)(F)F)c(N)c1 (stereo not shown) [2-Amino-4,6-dimethyl-N-[2,2,2-trifluoro-1-(1H-indol-3-ylmethyl)ethyl]benzenesulfonamide]
- activity as an agonist of the glucocorticoid receptor function (glucocorticoid receptor): activity as an agonist

Structure (SMILES): Cc1cc(C)c(S(=O)(=O)NC(Cc2c[nH]c3c(C#N)cccc23)C(F)(F)F)c(C)c1 (stereo not shown) [N-[1-(7-Cyano-1H-indol-3-ylmethyl)-2,2,2-trifluoroethyl]-2,4,6-trimethylbenzenesulfonamide]
- activity as an agonist of the glucocorticoid receptor function (glucocorticoid receptor): activity as an agonist

Structure (SMILES): Cc1cc(C)c(S(=O)(=O)NC(Cc2c[nH]c3c(C#N)cc(C)cc23)C(F)(F)F)c(C)c1 (stereo not shown) [N-[1-(7-Cyano-5-methyl-1H-indol-3-ylmethyl)-2,2,2-trifluoroethyl]-2,4,6-trimethylbenzenesulfonamide]
- activity as an agonist of the glucocorticoid receptor function (glucocorticoid receptor): activity as an agonist
